Laboratory results reported in patent publication US11549123B2, “Plant EPSP synthases and methods of use” (PIONEER HI-BRED INTERNATIONAL, INC., priority 2015, dated 2023).

Key:
Type in all cases: biochemical
[1] = molecular target: T1, Zea mays EPSPS variant Zm-H6 (868-H6) with A76V (H6-A76V) (Zea mays, UniProt O24566, A1R/A3W/A415G/A71Q/A75V/D401G/E301S/E390G/G101A/I207L/K83R/L97C/T278A/T360S/T440Q/V437R); experiment: Rapid two-rate method for (kcat/KM)*KI, H6-A76V; conditions: [E] 0.07 uM, [Gly] 1000 uM
T1 sequence (O24566 with tags, fused parts or gaps A1R/A3W/A71Q/A75V/K83R/L97C/G101A/I207L/T278A/E301S/T360S/E390G/D401G/A415G/V437R/T440Q): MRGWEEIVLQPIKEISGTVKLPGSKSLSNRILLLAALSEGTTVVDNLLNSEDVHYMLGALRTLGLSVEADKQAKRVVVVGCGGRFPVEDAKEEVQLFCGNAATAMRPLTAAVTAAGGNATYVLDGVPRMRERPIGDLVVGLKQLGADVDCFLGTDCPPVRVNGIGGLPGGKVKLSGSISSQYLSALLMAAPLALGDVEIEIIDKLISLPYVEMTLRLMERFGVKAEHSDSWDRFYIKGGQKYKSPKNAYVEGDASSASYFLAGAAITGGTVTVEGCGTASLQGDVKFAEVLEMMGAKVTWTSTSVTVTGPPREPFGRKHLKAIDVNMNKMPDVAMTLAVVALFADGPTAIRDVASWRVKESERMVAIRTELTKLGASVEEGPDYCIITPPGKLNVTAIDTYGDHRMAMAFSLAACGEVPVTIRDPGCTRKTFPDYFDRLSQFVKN
From the text: (§1) There are several practical considerations for accurately estimating (kcat/KM)*KI with the rapid method. […] 2) The inhibitor concentration must be adjusted so as to obtain a degree of inhibition that minimally amplifies the error in the term v0-vi in Equation 3. If inhibition is too little, v0-vi will be small, and the error in the multiplier vi×v0/(v0-vi) will be large. […] 3) Substrate concentration should be set at the approximate KM of the parental variant(s), subject to the sensitivity of the assay. High substrate concentration obscures sensitivity to the inhibitor and reduces stringency for capturing improvements in KM. Depending on the necessity for speed, there exists opportunity for customizing enzyme and inhibitor concentrations. […] The rapid method was repeated for those and obtained data that correlated better with data obtained by substrate saturation analysis. For screening purposes however, that correlation step is not necessary. Conditions can be set so that variants with a pre-determined minimal fitness level are accurately quantified.
(§2) In Table 15, parameters above the heavy line for the rapid method were obtained under standard conditions. For variants shown below the heavy line, the rapid analysis was repeated with enzyme or glyphosate concentrations adjusted as needed to generate sufficient signal within the limits for linear initial rates.

[2] = molecular target: T2, Zea mays EPSPS variant Zm-A189T (Zea mays, UniProt O24566, A188T); experiment: Substrate saturation kinetic analysis with glyphosate, Zm-A189T
T2 sequence (O24566 with tags, fused parts or gaps A188T): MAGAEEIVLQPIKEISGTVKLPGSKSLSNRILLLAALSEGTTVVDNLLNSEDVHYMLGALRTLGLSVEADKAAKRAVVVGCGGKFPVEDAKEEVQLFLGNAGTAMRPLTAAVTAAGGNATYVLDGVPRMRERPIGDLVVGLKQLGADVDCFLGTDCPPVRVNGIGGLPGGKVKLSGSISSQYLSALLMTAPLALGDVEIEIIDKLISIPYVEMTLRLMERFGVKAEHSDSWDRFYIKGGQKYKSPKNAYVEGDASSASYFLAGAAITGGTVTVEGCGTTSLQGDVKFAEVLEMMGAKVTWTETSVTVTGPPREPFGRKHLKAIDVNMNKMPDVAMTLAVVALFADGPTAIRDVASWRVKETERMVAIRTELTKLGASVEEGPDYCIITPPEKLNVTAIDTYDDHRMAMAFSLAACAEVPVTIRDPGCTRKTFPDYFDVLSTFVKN

[3] = molecular target: Sorghum halepense EPSPS, native, SEQ ID NO:8 (Sorghum halepense, UniProt H6T5X2); experiment: EPSPS substrate saturation kinetics, native sorghum
Description: EPSPS activity was determined by quantifying the phosphate generated from the EPSPS reaction. Release of inorganic phosphate was coupled to reaction with 2-amino-6-mercapto-7-methylpurine ribonucleoside, catalyzed by purine-nucleoside phosphorylase (M R Webb, Proc. Natl. Acad. Sci. 89:4884-4887, 1992). The absorbance change that occurs was monitored at 360 nm, where the extinction is 11,200 M^−1 cm^−1, with a Spectramax plate reader (Molecular Devices). To determine kinetic parameters, the varied substrate was present at seven concentrations (the eighth being the blank, containing no substrate) ranging from 4 to 400 uM and the unvaried substrate present at saturation. […] Reactions were monitored with a Spectramax plate reader. […] KI was then calculated from the following form of the Michaelis-Menten equation for competitive inhibition: KI=KM[I]/(KM app−KM) KM approximates the dissociation constant of the enzyme-substrate complex while kcat is the rate of conversion of substrate to product when the substrate concentration is saturating. kcat/KM is a widely accepted parameter for catalytic efficiency when substrate concentration is low (˜KM). […] The parameter kcat/KM×KI is used to quantify both catalytic efficiency and insensitivity and thus the overall fitness of the enzyme. […]

[4] = molecular target: T2, Zea mays EPSPS variant Zm-A189T; experiment: Rapid two-rate method for (kcat/KM)*KI, Zm-A189T; conditions: [E] 0.07 uM, [Gly] 1000 uM
From the text: as §1, §2

Sequence of Sorghum halepense EPSPS, native, SEQ ID NO:8 (H6T5X2 entry or part of it): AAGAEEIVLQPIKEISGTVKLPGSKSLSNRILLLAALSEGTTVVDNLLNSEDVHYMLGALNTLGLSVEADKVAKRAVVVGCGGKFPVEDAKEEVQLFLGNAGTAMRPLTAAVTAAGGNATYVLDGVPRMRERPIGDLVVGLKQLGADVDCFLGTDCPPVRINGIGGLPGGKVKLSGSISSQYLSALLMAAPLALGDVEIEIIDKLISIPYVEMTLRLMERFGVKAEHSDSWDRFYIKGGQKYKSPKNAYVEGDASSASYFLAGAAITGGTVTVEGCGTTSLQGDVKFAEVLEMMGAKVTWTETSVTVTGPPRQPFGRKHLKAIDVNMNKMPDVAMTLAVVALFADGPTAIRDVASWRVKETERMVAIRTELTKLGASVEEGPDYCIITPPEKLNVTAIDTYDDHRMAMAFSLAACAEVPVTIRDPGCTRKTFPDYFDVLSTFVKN

O=C(O)CNCP(=O)(O)O [glyphosate, N-phosphonomethylglycine]
(kcat/KM)*KI [1]: 2418
Ki [2]: 337 µM
(kcat/KM)*KI ([2]; substrate saturation, Zm-A189T): 283
Ki [3]: 0.2 µM
(kcat/KM)*KI ([3]; PEP as substrate, glyphosate as inhibitor): 33
(kcat/KM)*KI [4]: 431
